Data: ChEMBL document CHEMBL1201862, “PubChem BioAssay data set” (2004)
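Where inhibition never reached the appropriate level, the endpoint shown equals the highest concentration tested. Otherwise, values were interpolated linearly from a five-concentration, 48-hour dose response in 96-well plates. GI50 = concentration required for 50% inhibition of growth.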 Activity calls are given as the source filed them. Cut-off read from the data, not from the text of the source: active = GI50 up to about 1.1 µM and inactive = higher.

Columns and labels:
Assay in all cases: growth of human tumour cells (NCI), 48 h
HCC 2998 = system: HCC 2998
A498 = system: A498
SK-MEL-28 = system: SK-MEL-28
PC-3 = system: PC-3
NCI-H226 = system: NCI-H226
UO-31 = system: UO-31
UACC-62 = system: UACC-62
A549 = system: A549
NCI-H23 = system: NCI-H23
TK-10 = system: TK-10
SR = system: SR
HT-29 = system: HT-29
KM12 = system: KM12
M14 = system: M14
MDA-MB-435 = system: MDA-MB-435
MDA-N = system: MDA-N
MCF7 = system: MCF7
HOP-92 = system: HOP-92
SK-OV-3 = system: SK-OV-3

Row | Structure (SMILES) | GI50 (HCC 2998) | GI50 (A498) | GI50 (SK-MEL-28) | GI50 (PC-3) | GI50 (NCI-H226) | GI50 (UO-31) | GI50 (UACC-62) | GI50 (A549) | GI50 (NCI-H23) | GI50 (TK-10) | GI50 (SR) | GI50 (HT-29) | GI50 (KM12) | GI50 (M14) | GI50 (MDA-MB-435) | GI50 (MDA-N) | GI50 (MCF7) | GI50 (HOP-92) | GI50 (SK-OV-3)
1 | O=C(CCc1ccccc1)NCCc1ccc(O)c(O)c1 | 53.5 µM (inactive) | 78.2 µM (inactive) | 45.6 µM (inactive) | > 42.1 µM (inactive) | 21.2 µM (inactive) | 4.57 µM (inactive) | 34.3 µM (inactive) | 47.5 µM (inactive) | 32.4 µM (inactive) | > 100 µM (inactive) | 4.01 µM (inactive) | 39.7 µM (inactive) | 34.8 µM (inactive) | > 54.8 µM (inactive) | 15.6 µM (inactive) | 14.8 µM (inactive) | 31.8 µM (inactive) | 17.4 µM (inactive) | 27.2 µM (inactive)
2 | OC(Cc1ccc2ccccc2n1)(C(F)(F)Cl)C(F)(F)Cl | > 10 µM (inactive) | > 10 µM (inactive) | > 10 µM (inactive) | > 10 µM (inactive) | > 10 µM (inactive) | > 10 µM (inactive) | > 10 µM (inactive) | > 10 µM (inactive) | > 10 µM (inactive) | > 10 µM (inactive) | > 10 µM (inactive) | > 10 µM (inactive) | > 10 µM (inactive) | > 10 µM (inactive) | > 10 µM (inactive) | > 10 µM (inactive) | > 10 µM (inactive) | > 10 µM (inactive) | > 10 µM (inactive)
3 | CC(=O)OC1(C)C(=O)OC/C2=C/CN(C)CCC(OC(=O)C(O)(C(C)Cl)CC1C)C2=O.c1ccccc1 (stereo not drawn) | > 100 µM (inactive) | > 100 µM (inactive) | > 100 µM (inactive) | > 100 µM (inactive) | > 100 µM (inactive) | > 100 µM (inactive) | > 100 µM (inactive) | > 100 µM (inactive) | > 100 µM (inactive) | > 100 µM (inactive) | > 100 µM (inactive) | > 100 µM (inactive) | > 100 µM (inactive) | > 100 µM (inactive) | > 100 µM (inactive) | > 100 µM (inactive) | > 100 µM (inactive) | > 100 µM (inactive) | > 100 µM (inactive)
4 | COc1ccc(C2OCCN2C)cc1 (stereo not drawn) | – | > 100 µM (inactive) | – | > 100 µM (inactive) | > 100 µM (inactive) | > 100 µM (inactive) | > 100 µM (inactive) | > 100 µM (inactive) | > 100 µM (inactive) | > 100 µM (inactive) | > 100 µM (inactive) | > 100 µM (inactive) | > 100 µM (inactive) | > 100 µM (inactive) | > 100 µM (inactive) | > 100 µM (inactive) | > 100 µM (inactive) | > 100 µM (inactive) | > 100 µM (inactive)
5 | COCCN(C(C)=O)C1CCC2(SCCS2)c2[nH]c3ccccc3c21 (stereo not drawn) | > 100 µM (inactive) | > 100 µM (inactive) | > 100 µM (inactive) | > 100 µM (inactive) | > 100 µM (inactive) | – | – | > 100 µM (inactive) | > 100 µM (inactive) | > 100 µM (inactive) | 42.5 µM (inactive) | > 100 µM (inactive) | > 100 µM (inactive) | – | > 100 µM (inactive) | > 100 µM (inactive) | > 100 µM (inactive) | 70.3 µM (inactive) | –
6 | O=C(O)C12C3C4(C(=O)O)C1C1(C(=O)O)C2C3(C(=O)O)C41 (stereo not drawn) | > 100 µM (inactive) | > 100 µM (inactive) | > 100 µM (inactive) | > 100 µM (inactive) | – | > 100 µM (inactive) | > 100 µM (inactive) | > 100 µM (inactive) | > 100 µM (inactive) | > 100 µM (inactive) | > 100 µM (inactive) | > 100 µM (inactive) | > 100 µM (inactive) | > 100 µM (inactive) | > 100 µM (inactive) | > 100 µM (inactive) | > 100 µM (inactive) | > 100 µM (inactive) | –
7 | COc1cc([C@@H]2c3cc4c(cc3[C@@H](c3c(O)cc(O)c5c3O[C@H](c3ccc(O)c(O)c3)[C@H](OC(=O)c3cc(O)c(O)c(O)c3)C5)[C@H]3COC(=O)[C@H]23)OCO4)cc(OC)c1OC | 20.2 µM (inactive) | 3.74 µM (inactive) | > 50.7 µM (inactive) | 5.28 µM (inactive) | 2.65 µM (inactive) | – | 4.73 µM (inactive) | 11.9 µM (inactive) | 38.5 µM (inactive) | > 100 µM (inactive) | 2.69 µM (inactive) | 17.6 µM (inactive) | 3.88 µM (inactive) | 9.93 µM (inactive) | 2.54 µM (inactive) | 3.07 µM (inactive) | 3.75 µM (inactive) | > 100 µM (inactive) | 9.46 µM (inactive)
8 | CN(C)Cc1cc(C(C)(C)C)cc(CNC2CCCCC2)c1O | 11.6 µM (inactive) | 27.9 µM (inactive) | 33.3 µM (inactive) | 24.6 µM (inactive) | – | 15.6 µM (inactive) | 51.9 µM (inactive) | 29.6 µM (inactive) | 69.7 µM (inactive) | 27.7 µM (inactive) | 19.7 µM (inactive) | 17.5 µM (inactive) | 30.4 µM (inactive) | 16.1 µM (inactive) | 65.9 µM (inactive) | 83.8 µM (inactive) | 29.4 µM (inactive) | 19.5 µM (inactive) | 30.7 µM (inactive)
9 | CCOC(=O)NC | > 100 µM (inactive) | > 100 µM (inactive) | > 100 µM (inactive) | > 100 µM (inactive) | – | > 100 µM (inactive) | > 100 µM (inactive) | > 100 µM (inactive) | > 100 µM (inactive) | > 100 µM (inactive) | > 100 µM (inactive) | > 100 µM (inactive) | > 100 µM (inactive) | > 100 µM (inactive) | > 100 µM (inactive) | > 100 µM (inactive) | > 100 µM (inactive) | > 100 µM (inactive) | > 100 µM (inactive)
10 | CN(C)CCNC(=O)c1ccc(NC(=O)c2nc([N+](=O)[O-])cn2C)cc1 | – | > 100 µM (inactive) | > 100 µM (inactive) | > 100 µM (inactive) | > 100 µM (inactive) | > 100 µM (inactive) | > 100 µM (inactive) | > 100 µM (inactive) | > 100 µM (inactive) | > 100 µM (inactive) | > 100 µM (inactive) | > 100 µM (inactive) | > 100 µM (inactive) | > 100 µM (inactive) | > 100 µM (inactive) | > 100 µM (inactive) | > 100 µM (inactive) | > 100 µM (inactive) | > 100 µM (inactive)
11 | C=C1CCc2ccccc2C1=O | > 100 µM (inactive) | > 100 µM (inactive) | – | > 100 µM (inactive) | > 100 µM (inactive) | > 100 µM (inactive) | > 100 µM (inactive) | > 100 µM (inactive) | > 100 µM (inactive) | > 100 µM (inactive) | 19.2 µM (inactive) | 47.2 µM (inactive) | > 100 µM (inactive) | > 100 µM (inactive) | 29.3 µM (inactive) | 43.1 µM (inactive) | 56 µM (inactive) | > 100 µM (inactive) | > 100 µM (inactive)
12 | C#CCOC(=O)C(N)CSSCC(N)C(=O)O (stereo not drawn) | > 100 µM (inactive) | > 100 µM (inactive) | > 100 µM (inactive) | > 100 µM (inactive) | > 100 µM (inactive) | > 100 µM (inactive) | > 100 µM (inactive) | > 100 µM (inactive) | > 100 µM (inactive) | > 100 µM (inactive) | > 100 µM (inactive) | – | > 100 µM (inactive) | > 100 µM (inactive) | > 100 µM (inactive) | > 100 µM (inactive) | > 100 µM (inactive) | > 100 µM (inactive) | –
13 | Nc1cc(S(=O)(=O)O)cc2ccc(S(=O)(=O)O)cc12 | > 100 µM (inactive) | > 100 µM (inactive) | > 100 µM (inactive) | > 100 µM (inactive) | – | > 100 µM (inactive) | > 100 µM (inactive) | > 100 µM (inactive) | > 100 µM (inactive) | > 100 µM (inactive) | > 100 µM (inactive) | > 100 µM (inactive) | > 100 µM (inactive) | > 100 µM (inactive) | > 100 µM (inactive) | > 100 µM (inactive) | > 100 µM (inactive) | > 100 µM (inactive) | > 100 µM (inactive)
14 | Nc1c(Cl)ncnc1N[C@@H]1C[C@H]1CO | > 100 µM (inactive) | > 100 µM (inactive) | > 100 µM (inactive) | > 100 µM (inactive) | – | > 100 µM (inactive) | > 100 µM (inactive) | > 100 µM (inactive) | > 100 µM (inactive) | > 100 µM (inactive) | > 100 µM (inactive) | > 100 µM (inactive) | > 100 µM (inactive) | > 100 µM (inactive) | > 100 µM (inactive) | > 100 µM (inactive) | > 100 µM (inactive) | > 100 µM (inactive) | –
15 | COc1ccc(OC)c(C2CCc3c(cnc4nc(N)nc(N)c34)C2)c1 (stereo not drawn) | 12.3 µM (inactive) | 12.3 µM (inactive) | 13.7 µM (inactive) | 8.2 µM (inactive) | 24.9 µM (inactive) | – | 0.673 µM (active) | 1.24 µM (inactive) | – | 10.9 µM (inactive) | 3.86 µM (inactive) | 2 µM (inactive) | 11.4 µM (inactive) | 1.3 µM (inactive) | 2.56 µM (inactive) | 2.07 µM (inactive) | 10.1 µM (inactive) | 13.2 µM (inactive) | 16 µM (inactive)
16 | O=c1c2cc(Cl)cc(Cl)c2oc2nc3n(c(=O)c12)CCCS3 | > 100 µM (inactive) | > 100 µM (inactive) | > 100 µM (inactive) | > 100 µM (inactive) | > 100 µM (inactive) | 18.8 µM (inactive) | > 100 µM (inactive) | > 100 µM (inactive) | > 100 µM (inactive) | > 100 µM (inactive) | > 100 µM (inactive) | – | > 100 µM (inactive) | > 100 µM (inactive) | > 100 µM (inactive) | > 100 µM (inactive) | 70.5 µM (inactive) | > 100 µM (inactive) | > 100 µM (inactive)
